The target in the assay is T1, Papain (Carica papaya, UniProt P00784).
T1 sequence (P00784 whole entry): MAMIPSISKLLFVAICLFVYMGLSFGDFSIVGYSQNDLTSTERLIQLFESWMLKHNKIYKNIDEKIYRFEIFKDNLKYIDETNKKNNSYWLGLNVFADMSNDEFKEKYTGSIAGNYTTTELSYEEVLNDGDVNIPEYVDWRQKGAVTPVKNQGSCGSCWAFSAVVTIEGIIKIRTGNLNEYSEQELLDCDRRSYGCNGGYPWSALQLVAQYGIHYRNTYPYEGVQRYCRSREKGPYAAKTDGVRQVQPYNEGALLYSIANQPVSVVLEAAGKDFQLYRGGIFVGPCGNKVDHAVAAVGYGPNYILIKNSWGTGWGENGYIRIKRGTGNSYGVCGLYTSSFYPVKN
Nature of the assay: Inhibition of Carica papaya papain.

The IC50 is the midpoint of a concentration-inhibition curve. Higher therefore signals a need for much substance.

In turn, `O=C([O-])C[n+]1cccc(C(=O)O)c1` had a concentration for half-maximal inhibition (IC50) of 442 µM.

Values taken from ChEMBL document CHEMBL1150891, “Isolation of 1-carboxymethylnicotinic acid from the marine sponge anthosigmella cf. raromicrosclera As a cysteine protease inhibitor1” (J Nat Prod, 1998).
